Where “and” joins values, the source holds several entries; their conditions need not be identical. Equal entries are not always repeated.
Test system: T. rubrum
Assay: Eradication of T. rubrum through a bovine hoof disk (modified Franz-type diffusion cell), colony count after treatment
Format: cell-based, Trichophyton rubrum
Details: 3 ul PFD on hoof immediately before 45 minutes of plasma treatment; seven days of incubation; 94% for one hoof, 100% (no colonies) for the other two
Excerpt: Eradication of T. rubrum through a bovine hoof using Perfluorode alin (PFD) facilitator and an SMD plasma-generating device.
The in vitro test model uses a bovine, hoof disk, a surrogate nail model established in the literature. It is used along with a modified Franz-type diffusion cell to isolate the fungal contaminated side of the hoof in an enclosed chamber that ensures the treatment path is through the hoof barrier. An equal amount of T. rubrum is pipetted onto each hoof disc consisting of a 100 ul suspension. Each hoof disk is then placed fungus side down into the modified Franz cell and sealed with an O-ring. Each hoof is then plasma treated for 45 minutes where the average thickness of hoof disks is 0.35 mm. Eight hoof disks were treated as: • a. Control that is placed directly into the wash tube without any treatment • b. Two PFD-only hooves had 3 ul PFD pipetted directly onto the hoof opposite side from the fungus. This was allowed to sit for 45 minutes in the hood before placing in the wash tube. • c. Two Plasma treatment only hooves get just a 45 minute plasma is treatment (i.e., no PFD). • d. Three Plasma treatment with PFD hooves had 3 ul PFD pipetted directly onto the hoof opposite side from the fungus immediately before applying plasma treatment.
After treatment, each hoof went through a fungal collection protocol consisting of washing, dilution, plating and incubation. […]

With `FC1(F)C(F)(F)C(F)(F)C2(F)C(F)(F)C(F)(F)C(F)(F)C(F)(F)C2(F)C1(F)F` (stereo not shown) [PFD, perfluorodecalin] the “colony reduction compared to control” value was 94% and 100%.
